Holding throughout (assay type): cell-based
Test [1] deals with Mer (phospho-Mer, MERTK-transfected 293A cells) (Homo sapiens (Human), UniProt Q12866). As to the kind of experiment: Mer autophosphorylation ELISA in transient transfected 293A cells (Example H). Particulars: cellular activity; Mer autophosphorylation ELISA in transient transfected 293A cells. The method in brief: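 Inhibition of cellular Mer autophosphorylation is determined in 293A cells transiently expressing human MERTK after 1 h compound exposure (8 concentrations, serum-free, 0.3% DMSO). Phospho-Mer in clarified lysates is measured by ELISA, with DMSO and reference-inhibitor wells defining the 100% and 0% activity limits.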
Sequence of Mer (phospho-Mer, MERTK-transfected 293A cells) (Q12866 21-999): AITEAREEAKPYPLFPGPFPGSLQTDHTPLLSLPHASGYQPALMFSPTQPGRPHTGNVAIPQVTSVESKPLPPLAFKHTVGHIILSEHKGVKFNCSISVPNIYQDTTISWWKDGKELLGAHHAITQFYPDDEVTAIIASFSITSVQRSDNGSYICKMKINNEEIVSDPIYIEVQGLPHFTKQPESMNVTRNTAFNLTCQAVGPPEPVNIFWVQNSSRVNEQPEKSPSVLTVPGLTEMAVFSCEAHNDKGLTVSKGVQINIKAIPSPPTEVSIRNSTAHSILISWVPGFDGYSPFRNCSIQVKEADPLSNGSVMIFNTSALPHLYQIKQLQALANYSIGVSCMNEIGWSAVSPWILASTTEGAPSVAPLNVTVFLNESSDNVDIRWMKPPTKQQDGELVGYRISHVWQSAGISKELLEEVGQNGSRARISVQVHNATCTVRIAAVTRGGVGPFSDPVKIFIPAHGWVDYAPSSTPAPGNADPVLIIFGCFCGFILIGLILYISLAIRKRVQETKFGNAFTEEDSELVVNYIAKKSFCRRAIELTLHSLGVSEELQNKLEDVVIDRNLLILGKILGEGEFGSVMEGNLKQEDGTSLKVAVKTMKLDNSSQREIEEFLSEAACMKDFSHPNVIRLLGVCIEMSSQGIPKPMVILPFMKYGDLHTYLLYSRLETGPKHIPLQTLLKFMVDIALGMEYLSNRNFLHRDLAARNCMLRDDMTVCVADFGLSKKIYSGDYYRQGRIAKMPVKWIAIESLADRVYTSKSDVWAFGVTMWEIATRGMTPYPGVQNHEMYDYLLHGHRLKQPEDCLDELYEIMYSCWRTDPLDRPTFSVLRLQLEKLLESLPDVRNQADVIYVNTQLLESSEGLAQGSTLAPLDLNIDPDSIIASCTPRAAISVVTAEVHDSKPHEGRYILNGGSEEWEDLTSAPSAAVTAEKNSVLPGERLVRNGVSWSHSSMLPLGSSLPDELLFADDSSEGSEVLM

For test [2], the target named is Met (phospho-Met, HGF-stimulated PC-3 prostate cancer cells) (Homo sapiens (Human), UniProt P08581). The test is described as follows: Met autophosphorylation ELISA in PC-3 cells (Example F). Particulars: cellular activity; Met autophosphorylation ELISA in PC-3 cells; read-out: c-Met IC50. The method in brief: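 IC50 values derive from a 4-parameter logistic fit of phospho-Met (panTyr) sandwich ELISA signals in PC-3 lysates, scaled between DMSO and reference-inhibitor wells. Cells, starved 3 h in serum-free medium, had 1 h compound exposure (8 doses, 0.3% DMSO) before 10 min stimulation with 100 ng/mL HGF.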
Sequence of Met (phospho-Met, HGF-stimulated PC-3 prostate cancer cells) (P08581 25-1390): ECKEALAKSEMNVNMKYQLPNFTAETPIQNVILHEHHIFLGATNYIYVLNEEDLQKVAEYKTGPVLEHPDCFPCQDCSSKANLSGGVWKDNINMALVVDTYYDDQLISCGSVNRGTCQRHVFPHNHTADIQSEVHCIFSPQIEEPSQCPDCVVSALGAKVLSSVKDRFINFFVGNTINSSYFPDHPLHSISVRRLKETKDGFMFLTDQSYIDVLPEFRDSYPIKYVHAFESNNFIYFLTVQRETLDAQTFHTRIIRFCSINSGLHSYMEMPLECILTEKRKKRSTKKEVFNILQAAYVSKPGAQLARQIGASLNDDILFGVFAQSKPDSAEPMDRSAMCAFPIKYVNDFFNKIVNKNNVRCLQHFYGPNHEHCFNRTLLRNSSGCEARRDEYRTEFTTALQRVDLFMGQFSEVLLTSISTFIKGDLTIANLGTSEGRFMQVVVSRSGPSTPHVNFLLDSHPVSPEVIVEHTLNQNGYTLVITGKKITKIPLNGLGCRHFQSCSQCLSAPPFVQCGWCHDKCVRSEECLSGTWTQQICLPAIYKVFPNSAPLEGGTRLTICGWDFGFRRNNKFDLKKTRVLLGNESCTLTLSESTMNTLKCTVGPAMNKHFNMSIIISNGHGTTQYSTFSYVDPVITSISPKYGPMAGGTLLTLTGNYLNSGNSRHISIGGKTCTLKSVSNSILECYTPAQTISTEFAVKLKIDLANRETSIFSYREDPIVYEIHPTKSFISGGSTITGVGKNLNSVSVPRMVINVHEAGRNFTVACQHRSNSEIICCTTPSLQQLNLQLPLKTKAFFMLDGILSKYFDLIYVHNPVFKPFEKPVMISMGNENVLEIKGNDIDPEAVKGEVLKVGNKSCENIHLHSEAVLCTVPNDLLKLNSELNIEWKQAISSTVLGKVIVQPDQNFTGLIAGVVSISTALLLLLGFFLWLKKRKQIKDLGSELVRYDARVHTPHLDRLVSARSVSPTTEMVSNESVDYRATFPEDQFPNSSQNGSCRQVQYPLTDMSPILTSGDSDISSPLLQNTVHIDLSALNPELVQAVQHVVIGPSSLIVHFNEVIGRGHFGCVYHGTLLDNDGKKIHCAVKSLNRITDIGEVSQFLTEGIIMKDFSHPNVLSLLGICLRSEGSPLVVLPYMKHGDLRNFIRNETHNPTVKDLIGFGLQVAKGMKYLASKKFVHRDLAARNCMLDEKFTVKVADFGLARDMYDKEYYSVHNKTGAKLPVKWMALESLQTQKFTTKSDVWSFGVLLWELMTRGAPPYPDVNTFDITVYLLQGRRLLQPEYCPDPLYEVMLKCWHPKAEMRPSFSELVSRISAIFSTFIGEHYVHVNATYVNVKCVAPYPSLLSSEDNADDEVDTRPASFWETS

In test [3] the target is KDR (phospho-KDR, VEGF165-stimulated HUVEC cells) (Homo sapiens (Human), UniProt P35968). The test is described as follows: KDR autophosphorylation ELISA in HUVEC cells (Example G). Particulars: cellular activity; KDR autophosphorylation ELISA in HUVEC cells. The method in brief:
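HUVECs were serum-starved 24 h, given compound as an 8-point dilution series (0.3% DMSO final) for 1 h, then stimulated with 100 ng/mL VEGF165 for 5 min. Lysate phospho-KDR was quantified by sandwich ELISA against a phospho-KDR standard, and IC50s came from a 4-parameter logistic fit.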

In test [4] the target is AXL (phospho-AXL, Gas6-stimulated A-172 glioblastoma cells) (Homo sapiens (Human), UniProt P30530). As to the kind of experiment: AXL autophosphorylation ELISA in A-172 cells (Example E). Particulars: cellular activity; AXL autophosphorylation ELISA in A-172 cells; read-out: Axl IC50. The method in brief: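 Phospho-AXL in lysates was quantified by ELISA, normalised to DMSO (100%) and reference inhibitor (0%) controls. IC50 by 4-parameter logistic fit.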
Sequence of AXL (phospho-AXL, Gas6-stimulated A-172 glioblastoma cells) (P30530 26-894): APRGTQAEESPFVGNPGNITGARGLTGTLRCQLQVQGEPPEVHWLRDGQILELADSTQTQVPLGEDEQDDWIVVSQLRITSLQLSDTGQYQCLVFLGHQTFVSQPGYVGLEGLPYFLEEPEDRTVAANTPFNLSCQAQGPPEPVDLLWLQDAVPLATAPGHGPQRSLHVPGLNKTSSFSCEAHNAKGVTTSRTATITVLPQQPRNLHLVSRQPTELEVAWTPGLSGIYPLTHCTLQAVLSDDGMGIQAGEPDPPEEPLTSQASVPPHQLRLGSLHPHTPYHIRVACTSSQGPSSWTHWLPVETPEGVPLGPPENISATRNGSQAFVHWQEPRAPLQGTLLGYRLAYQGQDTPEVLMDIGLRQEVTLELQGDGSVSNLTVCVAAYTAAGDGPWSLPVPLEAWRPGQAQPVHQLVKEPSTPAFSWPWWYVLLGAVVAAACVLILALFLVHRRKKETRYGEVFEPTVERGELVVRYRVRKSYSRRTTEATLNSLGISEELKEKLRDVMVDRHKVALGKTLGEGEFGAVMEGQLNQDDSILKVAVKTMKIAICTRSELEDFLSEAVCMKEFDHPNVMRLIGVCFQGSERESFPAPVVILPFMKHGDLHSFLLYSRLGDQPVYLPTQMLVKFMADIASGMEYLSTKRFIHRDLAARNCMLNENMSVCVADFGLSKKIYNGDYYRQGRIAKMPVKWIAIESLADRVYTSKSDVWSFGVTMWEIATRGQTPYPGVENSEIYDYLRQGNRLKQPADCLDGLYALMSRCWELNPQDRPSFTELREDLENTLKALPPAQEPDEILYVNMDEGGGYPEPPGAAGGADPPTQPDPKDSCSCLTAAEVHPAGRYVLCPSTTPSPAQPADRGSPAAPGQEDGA

Sequence of KDR (phospho-KDR, VEGF165-stimulated HUVEC cells) (P35968 20-1356): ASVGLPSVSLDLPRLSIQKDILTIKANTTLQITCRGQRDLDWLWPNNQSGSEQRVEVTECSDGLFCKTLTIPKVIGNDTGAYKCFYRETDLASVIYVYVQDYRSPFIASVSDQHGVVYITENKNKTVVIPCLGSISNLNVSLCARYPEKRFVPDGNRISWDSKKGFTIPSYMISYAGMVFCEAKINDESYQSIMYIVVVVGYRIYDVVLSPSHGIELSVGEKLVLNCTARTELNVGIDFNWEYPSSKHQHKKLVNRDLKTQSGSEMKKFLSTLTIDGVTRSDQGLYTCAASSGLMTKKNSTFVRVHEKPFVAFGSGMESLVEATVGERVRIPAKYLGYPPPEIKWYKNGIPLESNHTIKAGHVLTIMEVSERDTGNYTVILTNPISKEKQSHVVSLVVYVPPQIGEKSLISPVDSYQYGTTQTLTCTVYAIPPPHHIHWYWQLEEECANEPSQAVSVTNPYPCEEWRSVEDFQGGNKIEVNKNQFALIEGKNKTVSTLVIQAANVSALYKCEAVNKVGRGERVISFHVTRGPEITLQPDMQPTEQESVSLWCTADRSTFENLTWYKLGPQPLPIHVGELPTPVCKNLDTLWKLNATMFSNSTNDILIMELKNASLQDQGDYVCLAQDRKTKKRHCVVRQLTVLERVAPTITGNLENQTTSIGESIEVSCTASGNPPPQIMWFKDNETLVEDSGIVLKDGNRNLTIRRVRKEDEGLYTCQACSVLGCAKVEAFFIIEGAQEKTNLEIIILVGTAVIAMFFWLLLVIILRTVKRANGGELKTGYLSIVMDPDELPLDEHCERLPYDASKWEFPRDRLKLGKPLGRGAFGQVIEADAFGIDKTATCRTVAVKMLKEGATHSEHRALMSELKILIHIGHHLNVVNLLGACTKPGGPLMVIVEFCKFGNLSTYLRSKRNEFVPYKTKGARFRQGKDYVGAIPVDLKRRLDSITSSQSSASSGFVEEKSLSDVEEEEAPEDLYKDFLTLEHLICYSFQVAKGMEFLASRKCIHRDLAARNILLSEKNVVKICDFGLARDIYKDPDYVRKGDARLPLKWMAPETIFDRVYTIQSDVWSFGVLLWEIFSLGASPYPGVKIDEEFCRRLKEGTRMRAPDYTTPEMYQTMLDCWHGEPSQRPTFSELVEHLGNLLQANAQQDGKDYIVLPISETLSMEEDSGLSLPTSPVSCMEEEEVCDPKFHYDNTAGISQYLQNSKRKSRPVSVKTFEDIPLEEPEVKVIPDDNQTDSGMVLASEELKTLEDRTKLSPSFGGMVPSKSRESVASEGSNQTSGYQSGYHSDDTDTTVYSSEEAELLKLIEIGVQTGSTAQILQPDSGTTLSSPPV

In the case of `COc1cnc2c(Oc3ccc(NC(=O)c4cn5c(c(-c6ccc(F)cc6)c4=O)COCC5)cc3F)ccnc2c1` [Compound 661, N-[3-fluoro-4-[(7-methoxy-1,5-naphthyridin-4-yl)oxy]phenyl]-9-(4-fluorophenyl)-8-oxo-3,4-dihydro-1H-pyrido[2,1-c][1,4]oxazine-7-carboxamide], the IC50 was below 100 nM in test [1], below 100 nM in test [2], above 300 nM in test [3] and below 100 nM in test [4].
For `COc1cc2nccc(Oc3ccc(NC(=O)c4cnc(C5CC5)c(-c5ccc(F)cc5)c4O)cc3F)c2nc1OC` [Compound 662, 6-cyclopropyl-N-[4-[(6,7-dimethoxy-1,5-naphthyridin-4-yl)oxy]-3-fluorophenyl]-5-(4-fluorophenyl)-4-hydroxypyridine-3-carboxamide], the IC50 in test [1] was below 100 nM; in test [2] it was below 100 nM; in test [3], 100 to 300 nM; in test [4], below 100 nM.
Take `COCc1nc(C)c(-c2ccc(F)cc2)c(OC)c1C(=O)Nc1ccc(Oc2ccnc3cc(OC)c(OC)nc23)c(F)c1` [Compound 663, N-[4-[(6,7-dimethoxy-1,5-naphthyridin-4-yl)oxy]-3-fluorophenyl]-5-(4-fluorophenyl)-4-methoxy-2-(methoxymethyl)-6-methylpyridine-3-carboxamide]: the IC50 is below 100 nM in test [1], below 100 nM in test [2], above 300 nM in test [3] and below 100 nM in test [4].
In the case of `COc1cc2nccc(Oc3ccc(NC(=O)c4c(C)c(F)cn(-c5ccc(F)cc5)c4=O)cc3F)c2nc1OC` [Compound 664, N-[4-[(6,7-dimethoxy-1,5-naphthyridin-4-yl)oxy]-3-fluorophenyl]-5-fluoro-1-(4-fluorophenyl)-4-methyl-2-oxopyridine-3-carboxamide], the IC50 in test [1], in test [2], in test [3] and in test [4] was below 100 nM each time.
With `COc1cc2nccc(Oc3ccc(NC(=O)c4c(C)c(F)cn(-c5ccc(F)cc5)c4=O)cc3)c2nc1OC` [Compound 665, N-[4-[(6,7-dimethoxy-1,5-naphthyridin-4-yl)oxy]phenyl]-5-fluoro-1-(4-fluorophenyl)-4-methyl-2-oxopyridine-3-carboxamide], the IC50 was below 100 nM in test [1], below 100 nM in test [2], 100 to 300 nM in test [3] and below 100 nM in test [4].
Consider `COc1cc2nccc(Oc3ccc(NC(=O)c4c(C)n(CCF)cc(-c5ccc(F)cc5)c4=O)cc3F)c2nc1OC` [Compound 666, N-[4-[(6,7-dimethoxy-1,5-naphthyridin-4-yl)oxy]-3-fluorophenyl]-1-(2-fluoroethyl)-5-(4-fluorophenyl)-2-methyl-4-oxopyridine-3-carboxamide], for which the IC50 in test [1] was below 100 nM; in test [2], below 100 nM; in test [3], 100 to 300 nM; in test [4], below 100 nM.
Consider `CCOCc1nc(C)c(-c2ccc(F)cc2C)c(O)c1C(=O)Nc1ccc(Oc2ccnc3cc(OC)cnc23)c(F)c1` [Compound 667, 2-(ethoxymethyl)-N-[3-fluoro-4-[(7-methoxy-1,5-naphthyridin-4-yl)oxy]phenyl]-5-(4-fluoro-2-methylphenyl)-4-hydroxy-6-methylpyridine-3-carboxamide], for which the IC50 in test [1] was below 100 nM; in test [2], below 100 nM; in test [3], above 300 nM; in test [4], below 100 nM.
Regarding `COc1cc2nccc(Oc3ccc(NC(=O)c4cn(C(F)F)c(C)c(-c5ccc(F)cc5)c4=O)cc3F)c2nc1OC` [Compound 668, 1-(difluoromethyl)-N-[4-[(6,7-dimethoxy-1,5-naphthyridin-4-yl)oxy]-3-fluorophenyl]-5-(4-fluorophenyl)-6-methyl-4-oxopyridine-3-carboxamide], the IC50 in test [1], in test [2], in test [3] and in test [4] was below 100 nM each time.
In the case of `COc1cnc2c(Oc3ccc(NC(=O)c4cn(C(F)F)c(C)c(-c5ccc(F)cc5)c4=O)cc3)ccnc2c1` [Compound 669, 1-(difluoromethyl)-5-(4-fluorophenyl)-N-[4-[(7-methoxy-1,5-naphthyridin-4-yl)oxy]phenyl]-6-methyl-4-oxopyridine-3-carboxamide], the IC50 was below 100 nM in test [1], below 100 nM in test [2], above 300 nM in test [3] and below 100 nM in test [4].
`COc1cnc2c(Oc3ccc(NC(=O)c4cnc(C)c(-c5ccc(F)c(OC)c5)c4O)cc3F)ccnc2c1` [Compound 670, N-[3-fluoro-4-[(7-methoxy-1,5-naphthyridin-4-yl)oxy]phenyl]-5-(4-fluoro-3-methoxyphenyl)-4-hydroxy-6-methylpyridine-3-carboxamide]: the IC50 in test [1], in test [2], in test [3] and in test [4] was below 100 nM each time.
In the case of `CCOc1nc2c(Oc3ccc(NC(=O)c4c(C)ncc(-c5ccc(F)cc5)c4O)cc3)ccnc2cc1OC` [Compound 671, N-[4-[(6-ethoxy-7-methoxy-1,5-naphthyridin-4-yl)oxy]phenyl]-5-(4-fluorophenyl)-4-hydroxy-2-methylpyridine-3-carboxamide], the IC50 in test [1], in test [2], in test [3] and in test [4] was below 100 nM each time.
On to `CCOc1nc2c(Oc3ccc(NC(=O)c4c(COC)nc(C)c(-c5ccc(F)cc5)c4O)cc3)ccnc2cc1OC` [Compound 672, N-[4-[(6-ethoxy-7-methoxy-1,5-naphthyridin-4-yl)oxy]phenyl]-5-(4-fluorophenyl)-4-hydroxy-2-(methoxymethyl)-6-methylpyridine-3-carboxamide], for which the IC50 in test [1], in test [2], in test [3] and in test [4] was below 100 nM each time.
As for `CCOc1nc2c(Oc3ccc(NC(=O)c4cnc(C)c(-c5ccc(F)cc5C)c4O)cc3)ccnc2cc1OC` [Compound 673, N-[4-[(6-ethoxy-7-methoxy-1,5-naphthyridin-4-yl)oxy]phenyl]-5-(4-fluoro-2-methylphenyl)-4-hydroxy-6-methylpyridine-3-carboxamide], the half-maximal inhibitory concentration (IC50) in test [1], in test [2], in test [3] and in test [4] was below 100 nM throughout.
Regarding `CCOc1nc2c(Oc3ccc(NC(=O)c4c(C)nc(C)c(-c5ccc(F)cc5C)c4O)cc3)ccnc2cc1OC` [Compound 674, N-[4-[(6-ethoxy-7-methoxy-1,5-naphthyridin-4-yl)oxy]phenyl]-5-(4-fluoro-2-methylphenyl)-4-hydroxy-2,6-dimethylpyridine-3-carboxamide], the IC50 in test [1], in test [2], in test [3] and in test [4] was below 100 nM in each case.
As to `CCOc1nc2c(Oc3ccc(NC(=O)c4c(C)ncc(-c5ccc(F)cc5)c4O)cc3F)ccnc2cc1OC` [Compound 675, N-[4-[(6-ethoxy-7-methoxy-1,5-naphthyridin-4-yl)oxy]-3-fluorophenyl]-5-(4-fluorophenyl)-4-hydroxy-2-methylpyridine-3-carboxamide], the IC50 in test [1], in test [2], in test [3] and in test [4] was below 100 nM in each case.
On to `CCOc1nc2c(Oc3ccc(NC(=O)c4c(COC)nc(C)c(-c5ccc(F)cc5)c4O)cc3F)ccnc2cc1OC` [Compound 676, N-[4-[(6-ethoxy-7-methoxy-1,5-naphthyridin-4-yl)oxy]-3-fluorophenyl]-5-(4-fluorophenyl)-4-hydroxy-2-(methoxymethyl)-6-methylpyridine-3-carboxamide], for which the IC50 in test [1], in test [2], in test [3] and in test [4] was below 100 nM throughout.
As for `CCOc1nc2c(Oc3ccc(NC(=O)c4cnc(C)c(-c5ccc(F)cc5C)c4O)cc3F)ccnc2cc1OC` [Compound 677, N-[4-[(6-ethoxy-7-methoxy-1,5-naphthyridin-4-yl)oxy]-3-fluorophenyl]-5-(4-fluoro-2-methylphenyl)-4-hydroxy-6-methylpyridine-3-carboxamide], the IC50 in test [1], in test [2], in test [3] and in test [4] was below 100 nM in each case.
Turning to `CCOc1nc2c(Oc3ccc(NC(=O)c4c(C)nc(C)c(-c5ccc(F)cc5C)c4O)cc3F)ccnc2cc1OC` [Compound 678, N-[4-[(6-ethoxy-7-methoxy-1,5-naphthyridin-4-yl)oxy]-3-fluorophenyl]-5-(4-fluoro-2-methylphenyl)-4-hydroxy-2,6-dimethylpyridine-3-carboxamide], the IC50 in test [1], in test [2], in test [3] and in test [4] was below 100 nM each time.

Source of the values: US12371428B2 (Exelixis, Inc., priority 2019, dated 2025).
